Patent publication US11953435B2, “Zinc-responsive fluorophores” (Northwestern University, priority 2019, dated 2024)
Several values for one entry are separate records, joined by “and”; a condition that tells them apart may be missing. Equal values may be shown once.

Experiment: Photophysical properties in aqueous buffer (UV-visible, fluorescence, quantum yield, extinction coefficient)
Format: physicochemical
Settings: for λAbs (max) / λEm (max): aqueous buffer pH 7.2; for Extinction Coefficient (ε) / Quantum Yield (Φ): 50 nM to 250 nM probe; for fluorescence turn-on in the presence of zinc: aqueous buffered solutions; for turn-on ratio / increase in brightness in response to zinc: holo vs apo
Description: Aqueous solutions were prepared by using de-ionized water with resistivity […], obtained using a Milli-Q water purification system. In order to properly compare the photophysical properties of ZincBY-2, ZincBY-3, and ZincBY-4 to ZincBY-1, the photophysical properties of ZincBY-1 we remeasured. […] Stock solutions of ZincBY-1, ZincBY-2, ZincBY-3, and ZincBY-4 were prepared at concentrations of 5 mM and stored at −20° C. in aliquots that were used immediately after thawing for each experiment. Unless otherwise stated, all spectroscopic methods were conducted in aqueous buffer containing 50 mM HEPES (pH 7.2) and 0.1 M KNO3. UV-visible spectra were acquired on a PerkinElmer Lambda 650 UV/Vis spectrophotometer using quartz cuvettes from Starna (1 cm path length, 10 cm path length used in extinction coefficient and quantum yield determination). Fluorescence spectra were acquired using a PerkinElmer LS 55 fluorescence spectrophotometer. For measurements containing zinc, 99.0% ZnNO3 hexahydrate (final concentration 5 μM) was used. For experiments analyzing apo probes, N,N,N′,N′-Tetrakis(2-pyridylmethyl)ethylenediamine (TPEN) (final concentration 5 μM) was added to solution. Quantum Yield and Extinction Coefficient Determination. Quantum yields for apo and holo ZincBY-1, ZincBY-2, ZincBY-3, and ZincBY-4 were determined by plotting absorbance vs. fluorescence intensity of solutions containing ZincBY-1, ZincBY-2, ZincBY-3, or ZincBY-4 at probe concentrations ranging from 50-250 nM. Serial dilution was used to make solutions at different concentrations. Fluorescein dissolved in 0.1 N NaOH was used as the quantum yield standard, using a literature-determined quantum yield of 0.95.^3 For all fluorophore solutions, fluorescence excitation was set at 490 nm and fluorescence emission was integrated from 510 nm to 650 nm. Zinc Dissociation Constant. Fluorescence spectra were recorded using zinc probes (ZincBY-1, ZincBY-2, ZincBY-3, or ZincBY-4; 200 nM) and ZnSO4 (various concentrations). The solutions were equilibrated in the dark for 1 h prior to measurement. The concentration of ZnSO4 was varied from 1 μM to 9 mM in buffer solution (50 mM HEPES and 0.1 M KNO3, and pH 7.2) containing 10 mM EGTA. Free Zn^2+ was calculated according to a previously reported method (Ref. B4; incorporated by reference in its entirety). Data was fit to the following one-site binding equation: F=(FminKd+Fmax[Zn^2+])/(Kd+[Zn^2+]) pH Response. The fluorescence spectra of zinc probes (ZincBY-2, ZincBY-3, or ZincBY-4; 200 nM) wasere measured at various pH values (4.5-11). The following buffers were used at 50 mM concentration with 0.1 M KNO3: NaOAc/AcOH (pH 4.0-4.5), MES (pH 5.0-6.5), HEPES (pH 7.0-8.0), CHES (pH 8.5-9.5), CAPS (pH 10.0-11.0). Metal Ion Response. The fluorescence spectra of zinc probes (ZincBY-2, ZincBY-3, or ZincBY-4; 200 nM) were measured in the presence an excess of metal ion including 1 mM KNO3, 1 mM NaNO3, 1 mM CaSO4, 1 mM MgSO4, 15 μM MnSO4, 15 μM (NH4)2Fe(SO4)2, 15 μM NH4Fe(SO4)2, 15 μM CoSO4, 15 μM NiSO4, 15 μM CuSO4, 15 μM [Cu(CH3CN)4]PF6, 15 μM CdSO4, 15 μM Hg(NO3)2, 15 μM Pb(NO3)2, or 15 μM ZnSO4. The fluorescence spectra were compared to that of ZincBY-2 (200 nM), ZincBY-3 (200 nM), or ZincBY-4 (200 nM) in the presence of 10 μM TPEN. Determination of octanol-water partition coefficients (log P). A log P value for each probe was determined by agitating nanomolar solutions of each probe in a 1:1 mixture of HEPES buffer and 1-octanol. Solutions were allowed to settle for 1 h and then the fluorescence intensity of each phase was measured. Standard curves of the fluorescence of known concentrations of probes in both solutions were used to determine concentrations.

[1] = remeasured, same as originally reported, state not specified

Compound | Brightness (ε*Φ/1000) (Apo) | λAbs (max) (Apo (TPEN)) [nm] | Extinction Coefficient (ε) (Apo) | λEm (max) (Apo) [nm] | Brightness (ε*Φ/1000) (Zn-bound) | Extinction Coefficient (ε) (Zn-bound) | λAbs (max) (Zn-bound) [nm] | λEm (max) (Zn-bound) [nm] | absorption peaks (apo form) | quantum yield lower compared to ZincBY-1 (apo form) [%] | fluorescence turn-on in the presence of zinc | quantum yield lower compared to ZincBY-1 (holo form) [%] | turn-on ratio / increase in brightness in response to zinc | Quantum Yield (Φ) (Apo) | Quantum Yield (Φ) (Zn-bound) | higher brightness on remeasurement compared to the originally reported values (both apo and holo states) [fold] | absorption wavelength [1] [nm] | emission wavelength [1] [nm]
CC(=O)NCCOc1ccc2n1[B-](F)(F)[N+]1=C(N(CCN(Cc3ccccn3)Cc3ccccn3)Cc3ccccn3)C=CC1=C2c1c(C)cc(C)cc1C [ZincBY-4, N-(2-((7-((2-(bis(pyridin-2-ylmethyl)amino)ethyl)(pyridin-2-ylmethyl)amino)-5,5-difluoro-10-mesityl-5H-5λ4,6λ4-dipyrrolo[1,2-c:2′,1′-f][1,3,2]diazaborinin-3-yl)oxy)ethyl)acetamide] | 1.44(7) M^−1cm^−1 | 572 | 0.88(4) × 10^4 M^−1cm^−1 | 585 | 12.15(34) M^−1cm^−1 | 2.12(4) × 10^4 M^−1cm^−1 | 482 | 537 | 482 nm and 570 nm | 5 | 8.4 | 10 | 8 fold | – | – | – | – | –
Cc1cc(C)c(C2=C3C=CC(OCCN)=[N+]3[B-](F)(F)n3c2ccc3N(CCN(Cc2ccccn2)Cc2ccccn2)Cc2ccccn2)c(C)c1 [ZincBY-3, N1-(7-(2-aminoethoxy)-5,5-difluoro-10-mesityl-5H-4λ4,5λ4-dipyrrolo[1,2-c:2′,1′-f][1,3,2]diazaborinin-3-yl)-N1,N2,N2-tris(pyridin-2-ylmethyl)ethane-1,2-diamine] | 1.85(8) M^−1cm^−1 | 571 | 1.16(4) × 10^4 M^−1cm^−1 | 585 | 12.42(36) M^−1cm^−1 | 2.21(5) × 10^4 M^−1cm^−1 | 482 | 537 | – | – | – | – | – | 0.158(3) | 0.562(11) | – | – | –
COc1ccc2n1[B-](F)(F)[N+]1=C(N(CCN(Cc3ccccn3)Cc3ccccn3)Cc3ccccn3)C=CC1=C2c1c(C)cc(C)cc1C [ZincBY-1, reference compound] | 5.21(72) M^−1cm^−1 | 529 | 2.42(33) × 10^4 M^−1cm^−1 | 559 | 26.97(2.30) M^−1cm^−1 | 4.14(33) × 10^4 M^−1cm^−1 | 532 | 543 | – | – | 5.2 | – | ca. 5 fold | 0.215(5) | 0.651(18) and 0.651(2) | 10 | 533 | 543
Cc1cc(C)c(C2=C3C=CC(OCCN=[N+]=[N-])=[N+]3[B-](F)(F)n3c2ccc3N(CCN(Cc2ccccn2)Cc2ccccn2)Cc2ccccn2)c(C)c1 [ZincBY-2, N1-(7-(2-azidoethoxy)-5,5-difluoro-10-mesityl-5H-4λ4,5λ4-dipyrrolo[1,2-c:2′,1′-f][1,3,2]diazaborinin-3-yl)-N1,N2,N2-tris(pyridin-2-ylmethyl)ethane-1,2-diamine] | 2.35(58) M^−1cm^−1 | 532 | 1.42(35) × 10^4 M^−1cm^−1 | 566 | 13.58(1.93) M^−1cm^−1 | 2.57(35) × 10^4 M^−1cm^−1 | 532 | 552 | – | – | – | – | – | 0.164(7) | 0.529(22) | – | – | –
